Test results reported in ChEMBL document CHEMBL1201862, “PubChem BioAssay data set” (2004).
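Assay format: 96-well plates, 48-hour exposure. Abbreviation: GI50, concentration required for 50% inhibition of growth.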 Activity calls are given as the source filed them. Cut-off read from the data, not from the text of the source: active = GI50 up to about 1.1 µM and inactive = higher.

Legend:
Assay in all cases: DTP human tumour cell line panel, 48 h
SK-MEL-28 = system: SK-MEL-28
U-251 = system: U-251
Malme-3M = system: Malme-3M
SW-620 = system: SW-620
HT-29 = system: HT-29
SN12C = system: SN12C
NCI-H23 = system: NCI-H23
HL-60 = system: HL-60
SK-OV-3 = system: SK-OV-3
HOP-62 = system: HOP-62
Hs-578T = system: Hs-578T
COLO 205 = system: COLO 205
SF-539 = system: SF-539
UACC-257 = system: UACC-257
NCI-H460 = system: NCI-H460
A498 = system: A498
CCRF-CEM = system: CCRF-CEM
SF-295 = system: SF-295
K562 = system: K562
HCT-15 = system: HCT-15

SMILES	GI50 (SK-MEL-28)	GI50 (U-251)	GI50 (Malme-3M)	GI50 (SW-620)	GI50 (HT-29)	GI50 (SN12C)	GI50 (NCI-H23)	GI50 (HL-60)	GI50 (SK-OV-3)	GI50 (HOP-62)	GI50 (Hs-578T)	GI50 (COLO 205)	GI50 (SF-539)	GI50 (UACC-257)	GI50 (NCI-H460)	GI50 (A498)	GI50 (CCRF-CEM)	GI50 (SF-295)	GI50 (K562)	GI50 (HCT-15)
Cc1ccc(S(=O)(=O)N/N=C2/CC[C@H](C(C)(C)C)C[C@@H]2C)cc1	17 µM (inactive)	17.4 µM (inactive)	16.1 µM (inactive)	22.5 µM (inactive)	17.1 µM (inactive)	16.3 µM (inactive)	17.1 µM (inactive)	35.6 µM (inactive)	18.4 µM (inactive)	13.8 µM (inactive)	18.2 µM (inactive)	17 µM (inactive)	18.2 µM (inactive)	13.9 µM (inactive)	17 µM (inactive)	17.6 µM (inactive)	15.8 µM (inactive)	15.8 µM (inactive)	16.6 µM (inactive)	16.6 µM
COc1ccc(/C=c2/[nH]c(=O)/c(=C\c3ccc(OCc4ccccc4)cn3)[nH]c2=O)cc1	> 100 µM (inactive)	40.6 µM (inactive)	> 100 µM (inactive)	62.4 µM (inactive)	50.5 µM (inactive)	> 100 µM (inactive)	> 100 µM (inactive)	6.93 µM (inactive)	55 µM (inactive)	43 µM (inactive)	57.5 µM (inactive)	32.2 µM (inactive)	32.4 µM (inactive)	> 100 µM (inactive)	63.8 µM (inactive)	33 µM (inactive)	13.9 µM (inactive)	40.6 µM (inactive)	31.1 µM (inactive)	38.6 µM
O=c1cc(CBr)c2ccc(O)cc2o1	80.4 µM (inactive)	53.3 µM (inactive)	53.7 µM (inactive)	> 100 µM (inactive)	54.5 µM (inactive)	88.7 µM (inactive)	47.1 µM (inactive)	48.3 µM (inactive)	97.7 µM (inactive)	17 µM (inactive)	> 100 µM (inactive)	> 100 µM (inactive)	> 100 µM (inactive)	64.4 µM (inactive)	63.5 µM (inactive)	25.8 µM (inactive)	54.3 µM (inactive)	45.7 µM (inactive)	69.8 µM (inactive)	71.4 µM
Fc1ccc(C(OCCN2CCN(CCCCl)CC2)c2ccc(F)cc2)cc1	38.4 µM (inactive)	41 µM (inactive)	17 µM (inactive)	32.2 µM (inactive)	17 µM (inactive)	25.3 µM (inactive)	22.3 µM (inactive)	0.391 µM (active)	48.6 µM (inactive)	33 µM (inactive)	29.9 µM (inactive)	16.3 µM (inactive)	18.7 µM (inactive)	21 µM (inactive)	21.8 µM (inactive)	20.9 µM (inactive)	40.2 µM (inactive)	22.9 µM (inactive)	15.3 µM (inactive)	17.3 µM
CCC(c1nc2ccccc2c(=O)n1NC(=O)C(C)(C)C)C1(O)CCCCC1 (stereo not given)	> 100 µM (inactive)	> 100 µM (inactive)	> 100 µM (inactive)	> 100 µM (inactive)	> 100 µM (inactive)	> 100 µM (inactive)	> 100 µM (inactive)	> 100 µM (inactive)	> 100 µM (inactive)	> 100 µM (inactive)	> 100 µM (inactive)	> 100 µM (inactive)	> 100 µM (inactive)	> 100 µM (inactive)	> 100 µM (inactive)	> 100 µM (inactive)	99.5 µM (inactive)	> 100 µM (inactive)	> 100 µM (inactive)	> 100 µM
CCc1nc(N)nc(N)c1-c1ccc(N2CCNCC2)c([N+](=O)[O-])c1	40.5 µM (inactive)	6.03 µM (inactive)	15.5 µM (inactive)	5.4 µM (inactive)	4.47 µM (inactive)	22 µM (inactive)	7.85 µM (inactive)	4.59 µM (inactive)	91.2 µM (inactive)	19.4 µM (inactive)	18.5 µM (inactive)	15.3 µM (inactive)	10.6 µM (inactive)	13.9 µM (inactive)	2.11 µM (inactive)	39.7 µM (inactive)	4.74 µM (inactive)	7.96 µM (inactive)	0.718 µM (active)	35.7 µM
CC1=C(O)C(=O)C=C2C1=CC=C1[C@@]2(C)CC[C@@]2(C)[C@@H]3C[C@](C)(C(=O)O)CC[C@]3(C)CC[C@]12C [CELASTROL]	0.0164 µM (active)	0.0298 µM (active)	0.0352 µM (active)	0.0199 µM (active)	0.033 µM (active)	0.0376 µM (active)	0.0526 µM (active)	0.0173 µM (active)	0.238 µM (active)	0.237 µM (active)	0.0427 µM (active)	0.0166 µM (active)	0.0811 µM (active)	0.0256 µM (active)	0.149 µM (active)	0.0335 µM (active)	< 0.01 µM (active)	0.194 µM (active)	0.0201 µM (active)	0.0113 µM
